Here are results for 30 molecules from patent publication US5559113A, “Imidazole compounds and their therapeutic applications” (Institut National de la Sante et de la Recherche Medicale, priority 1992, dated 1996).

T1 sequence (Q9QYN8 whole entry): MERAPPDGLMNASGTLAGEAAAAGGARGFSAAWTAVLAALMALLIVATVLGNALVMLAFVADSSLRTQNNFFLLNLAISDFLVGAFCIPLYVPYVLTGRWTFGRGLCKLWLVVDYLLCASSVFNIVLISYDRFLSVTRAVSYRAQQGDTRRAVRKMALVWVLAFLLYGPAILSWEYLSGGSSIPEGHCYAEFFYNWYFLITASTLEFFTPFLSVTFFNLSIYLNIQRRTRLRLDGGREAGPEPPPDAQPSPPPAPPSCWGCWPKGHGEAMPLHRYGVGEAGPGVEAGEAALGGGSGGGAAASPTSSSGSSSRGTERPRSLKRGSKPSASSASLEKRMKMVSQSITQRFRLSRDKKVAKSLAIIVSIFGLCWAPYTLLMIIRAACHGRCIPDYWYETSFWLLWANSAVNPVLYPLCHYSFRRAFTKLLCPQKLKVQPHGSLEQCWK

One assay concerns the target T1, H3 receptors of the brain of the rat (Rattus norvegicus, UniProt Q9QYN8).
T1 construct: This method requires rat cerebral cortex sections; from tissue; host or cells: rat cerebral cortex sections
Kind of assay: Antagonism of the inhibition by exogenous histamine of release in rat cerebral cortex sections (central H3 receptors).
Conditions: not given
Format: cell-based. From the text:
This method requires rat cerebral cortex sections and has made possible the pharmacological characterization of the H3 receptors (Nature, 1987, 327, 117-123).
`Brc1ccc(CCCOCCCc2c[nH]cn2)cc1` [Example 38, 3-(4-Bromophenyl)propyl 3-(1H-imidazol-4-yl)propyl ether] gave a Ki of 0.015 ± 0.004 µM.

`Clc1ccc(COCCCc2c[nH]cn2)cc1` [Example 86, (4-Chlorophenyl)methyl 3-(1H-imidazol-4-yl)propyl ether] registered a Ki of 0.018 µM.

The molecule `O=C(CCC1CCCC1)OCCCc1c[nH]cn1` [Example 24, 3-(1H-Imidazol-4-yl)propyl ester of 3-cyclopentylpropanoic acid] displayed a Ki of 0.003 µM.

The molecule `O=C(CCCC1CCCCC1)NCCCc1c[nH]cn1` [Example 7, N-(3-(1H-Imidazol-4-yl)propyl)-4-cyclohexylbutanamide] had a Ki of 0.059 µM.

`Clc1ccc(CCCOCCCc2c[nH]cn2)cc1` [Example 85, 3-(4-Chlorophenyl)propyl 3-(1H-imidazol-4-yl)propyl ether] came in with a Ki of 0.013 ± 0.004 µM.

`O=C(CCc1ccccc1)NCCCc1c[nH]cn1` [Example 2, N-(3-(1H-Imidazol-4-yl)propyl)-3-phenylpropanamide] registered a Ki of 0.049 µM.

As to `O=[N+]([O-])c1ccc(NCCc2c[nH]cn2)nc1` [Example 94, 2-{[2-(1H-Imidazol-4-yl)ethyl]amino}-5-nitropyridine], the Ki was 0.038 µM.

`S=C(CCC1CCCC1)NCCCc1c[nH]cn1` [Example 22, N-(3-(1H-Imidazol-4-yl)propyl)-3-cyclopentylpropanethioamide] came in with a Ki of 0.011 µM.

`Fc1ccc(CCCOCCCc2c[nH]cn2)cc1` [Example 88, 3-(4-Fluorophenyl)propyl 3-(1H-imidazol-4-yl)propyl ether] displayed a Ki of 0.007 ± 0.002 µM.

Take `CC(CC(=O)NCCCc1c[nH]cn1)c1ccccc1` (racemic) [Example 15, (R,S)-(+)-N-(3-(1H-Imidazol-4-yl)propyl)-3-phenylbutanamide]: the Ki amounted to 0.035 µM.

With `O=C(CCCc1ccccc1)CCCc1c[nH]cn1` [Example 49, 1-(1H-Imidazol-4-yl)-7-phenylheptan-4-one], the Ki is 0.02 µM.

Molecule `c1ccc2sc(NCCc3c[nH]cn3)nc2c1` [Example 91, 2-{[2-(1H-Imidazol-4-yl)ethyl]amino}benzothiazole] registered a Ki of 0.38 µM.

`c1ccc(CCCOCCCc2c[nH]cn2)cc1` [Example 45, 3-Phenylpropyl 3-(1H-imidazol-4-yl)propyl ether] yielded a Ki of 0.017 ± 0.003 µM.

Molecule `O=C(CCC1CCCC1)NC/C=C/c1c[nH]cn1` [Example 19, (E)-N-(3-(1H-Imidazol-4-yl)allyl)-3-cyclopentylpropanamide] had a Ki of 0.042 µM.

Molecule `N#CN=C(NCCCc1cnc[nH]1)NCC1CCCCC1` [Example 51, N-Cyano-N'-[3-(1H-imidazol-4-yl)propyl]-N"-cyclohexylmethylguanidine] had a Ki of 0.02 µM.

The assay is the same for the next values; noted with them: read-out: Apparent dissociation constant (Ki) as antagonist of histamine on the H3 receptors of the brain of the rat; rat cerebral cortex sections; exogenous histamine 1 μM; Ki calculated from IC50 according to Cheng and Prusoff.
`O=[N+]([O-])c1ccc(OCCc2c[nH]cn2)cc1` [Example 110, 4-[2-(4-Nitrophenoxy)ethyl]-1H-imidazole]: the Ki is 0.035 ± 0.006 µM.

Take `O=C(NC(=O)c1ccccc1)OCCCc1c[nH]cn1` [Example 55, 3-(1H-Imidazol-4-yl)propyl N-benzoylcarbamate]: the Ki is 0.095 µM.

Take `N#Cc1ccc(OCCc2c[nH]cn2)cc1` [Example 112, 4-[2-(4-Cyanophenoxy)ethyl]-1H-imidazole]: the Ki was 0.009 ± 0.005 µM.

With `O=[N+]([O-])c1ccc(SCCc2c[nH]cn2)nc1` [Example 107, 2-{2-[1H-Imidazol-4-yl]ethylthio}-5-nitropyridine], the Ki was 0.0048 ± 0.0009 µM.

Turning to `CCCc1ccc(OCCc2c[nH]cn2)cc1` [Example 117, 4-[2-(4-Propylphenoxy)ethyl]-1H-imidazole], the Ki is 0.019 ± 0.009 µM.

On to `c1ccc2cc(OCCc3c[nH]cn3)ccc2c1` [Example 125, 4-[2-(2-Naphthyloxy)ethyl]-1H-imidazole], for which the Ki is 0.09 ± 0.027 µM.

In the case of `O=C(NCc1ccc([N+](=O)[O-])cc1)OCCCc1c[nH]cn1` [Example 67, 3-(1H-Imidazol-4-yl)propyl N-(4-nitrobenzyl)carbamate], the Ki was 0.015 µM.

For `c1nc(CCCOCCCC2CCCCC2)c[nH]1` [Example 36, 3-Cyclohexylpropyl 3-(1H-imidazol-4-yl)propyl ether], the Ki was 0.02 ± 0.008 µM.

As for `N#Cc1ccc(OCCCc2c[nH]cn2)cc1` [Example 130, 4-[3-(4-Cyanophenoxy)propyl]-1H-imidazole], the Ki was 0.012 ± 0.003 µM.

Turning to `O=C(Nc1ccc(F)cc1)OCCCc1c[nH]cn1` [Example 73, 3-(1H-Imidazol-4-yl)propyl N-(4-fluorophenyl)carbamate], the Ki is 0.024 ± 0.004 µM.

As to `O=C(Nc1ccccc1)OCCCc1c[nH]cn1` [Example 61, 3-(1H-Imidazol-4-yl)propyl N-phenylcarbamate], the Ki is 0.014 ± 0.008 µM.

As to `CN(Cc1ccccc1)C(=O)OCCCc1c[nH]cn1` [Example 83, 3-(1H-Imidazol-4-yl)propyl N-benzyl-N-methylcarbamate], the Ki is 0.042 µM.

For `FC(F)(F)c1ccc(OCCCc2c[nH]cn2)cc1` [Example 131, 4-[3-(4-Trifluoromethylphenoxy)propyl]-1H-imidazole], the Ki was 0.014 ± 0.006 µM.

Consider `O=C(NCC1CC1)OCCCc1c[nH]cn1` [Example 57, 3-(1H-Imidazol-4-yl)propyl N-(cyclopropylmethyl)carbamate], for which the Ki is 0.052 µM.

The same assay, now with this note: read-out: Inhibition of release by exogenous histamine.
By inhibition is commonly meant the share of the control response that was lost under treatment. As to `NCCc1c[nH]cn1` [histamine, reference compound], the inhibition at 1 µM was roughly 50%.
